From patent US12240854B2, “TRAF 6 inhibitors” (Helmholtz Zentrum München - Deutsches Forschungszentrum für …, priority 2018, dated 2025)
Entries after “also recorded” stand apart in the source; their conditions may differ.

How the values were obtained:
[1] = tested on: 24 different Ubiquitin reaction cascades (E2, E3 and substrate combinations); assay: Ubiquitin Profiler (Eurofins), single point; format: biochemical; settings: 30 μM, 24 reactions
Experimental: C25-140 was sent to Eurofins Pharma Discovery Services UK to perform a Single Point Ubiquitin Profiler testing of C25-140 effect at a concentration of 30 μM on 24 different Ubiquitin reaction cascades employing distinct combinations of E2, E3 and substrate. Each reaction was measured in duplicates. Cascade activity is expressed as a percentage of the mean cascade activity in the positive control samples. The positive control value is considered to be 100%, and all test samples are referred to this value.

[2] = tested on: IKK kinase activity in MEF cells; assay: IKK kinase assay in MEF cells; format: cell-based, mouse
Experimental: For MEF cells, 5.5×10^5 cells were seeded, then treated with compound for 6 hours and eventually stimulated with IL-1β or TNFα for 8 minutes. 1×10^6 Jurkat T-cells were treated with compound for 6 hours and finally stimulated with PMA (400 ng/ml) and lonomycin (600 ng/ml) for 8 minutes. After cell lysis in Co-IP lysis buffer (150 mM NaCl; 25 mM Hepes (pH 7.5); 0.2% NP-40; 1 mM Glycerol; 10 mM NaF; 8 mM β-Glycerophosphat; 1 mM DTT; 300 μM Sodium-vanadate; complete protease inhibitor), input samples were taken and the supernatant was then incubated with 6 μL IKKγ antibody FL-419 (Santa Cruz Biotechnology). Upon incubation with Protein-G-Sepharose beads (GE Healthcare), beads were washed in Co-IP wash buffer (150 mM NaCl; 25 mM Hepes (pH 7.5); 0.2% NP-40; 1 mM Glycerol) and transferred into kinase reaction buffer ([…] HEPES pH7.9; 10 mM MgCl2; 20 μM ATP; 20 mM β-Glycerophosphat; 200 μM Sodium-Vanadate; 1 mM DTT) supplemented with […] GST-IκBα (1-53) and 0.5 μL ^32P-γ-ATP. After 30 minutes incubation at 37° C., reaction was stopped and analyzed by autoradiography as well as Western Blot after separation on SDS-PAGE.

[3] = tested on: TCR target genes IL-2 and TNFα in Jurkat T-cells; assay: mRNA expression (qRT-PCR) in Jurkat T-cells; format: cell-based, human; settings: PMA/Ionomycin
Experimental: For MEF cells, 1.2×10^5 cells per sample were seeded, treated with compound for 6 hours and stimulated with either IL-1β or TNFα for 60 minutes. Jurkat T-cells and primary mouse CD4^+ T-cells were seeded at 2×10^5 cells per sample, also treated with compound for 6 hours and stimulated with PMA/lonomycin for 3 hours. RNA was isolated according to the manufacturer's protocol of the Qiagen RNeasy Kit (MEF cells) or the STRATEC INVITRAP® SPIN UNIVERSAL RNA MINI KIT (Jurkat T-cells). The isolation of mRNA from […] white adipose tissue from DIO mice was performed using TRIzol® Reagent according to manufacturer's instruction. To clear the isolated RNA from genomic DNA, samples (up to 5 μg RNA) were treated with RQ1 RNase-Free DNaseI (Promega) as described in the technical manual. For the reverse transcription of RNA into cDNA, the DNaseI digested RNA samples were processed using the SuperScript III First Strand cDNA Synthesis System (Invitrogen/ThermoFisher Scientific) following the manufacturer's protocol. […] For quantification of cDNA in the samples, the LightCylcer480 (Roche) and the KAPA SYBR FAST qPCR Kit were used. For relative quantification, the ΔΔCp method first described by Pfaffl (Pfaffl, M. W., A new mathematical model for relative quantification in real-time RT-PCR. Nucleic Acids Res, 2001. 29(9): p. e45) was applied.

[4] = tested on: p-IκBα (Ser32/36) in MEF cells; assay: ALPHASurefire p-IκBα / total IκBα in MEF cells; format: cell-based, mouse; settings: IL-1β
Experimental: In order to detect protein levels of p-IκBα (Ser32/36) as well as total IκBa, 1×10^4 MEF cells were seeded in 96-well plates, treated with compound for 6 hours and stimulated with 1 ng/ml IL-1β for 7 minutes. The p-IκBα and total IκBα protein levels were analyzed using the ALPHASurefire kits (PerkinElmer) following the manufacturer's instruction. The general 2-plate protocol was conducted.

[5] = tested on: Jurkat T-cells; assay: Cell cycle assessment (propidium iodide), Jurkat T-cells; format: cell-based, human; settings: 24 hours and 72 hours
Experimental: For cell cycle staining, cells were seeded at 2×10^5 cells per sample and treated with compound or DMSO. After the indicated incubation time (24 or 72 hours), cells were fixed in 100% Ethanol and subsequently stained with the Propidium Iodide staining solution (0.1% Triton X-100; 20 μg/ml Propidium Iodide; 200 μg/ml RNAse A in PBS) for 40 min in the dark. The Propidium Iodide fluorescence was collected using the Attune Flow Cytometer (Thermo Fisher Scientific). Analysis was performed using the Single Cell analysis software FlowJo.

[6] = tested on: U2932 (ABC DLBCL-MYD88 wt); assay: Cell viability in DLBCL, U2932; format: cell-based; settings: U2932, 30 μM, 9 days
Experimental: To determine the effects of C25-140 on MYD88-dependent ABC-DLBCL, we chose the HBL1 (ABC-DLBCL-MYD88 L265P), U2932 (ABC DLBCL-MYD88 wt) and BJAB (GCB DLBCL) cell lines. 1×10^6 cells of each cell line was seeded in 5 ml and treated with 30 μM compound C25-140 (compound 3) or DMSO. The entire experiment was carried out for 9 days. Every day 500 μl were taken and viable cell number was acquired using the ViCEII cell counter (Beckmann Coulter). At days 4 and 8 of the experiment the volume was again adjusted to 5 ml and samples were supplemented with 30 μM compound C25-140 or DMSO. This process was necessary to ensure linear proliferation of DMSO treated cells. All curves of C25-140 treated samples were referred to the corresponding DMSO treated controls.

[7] = ADME: plasma protein binding; format: in vitro ADME
Experimental: (§1) All ADME (plasma stability, plasma protein binding, microsomal stability, Log D, Caco-2 assay, CYP450 inhibition and hERG predictor assay) as well as pharmacokinetic studies (Tmax, Cmax, AUC0-240min, Mean Residence Time, Elimination half life, Elimination rate constant, Volume of Distribution and Clearance) of C25-140 (compound 3) were conducted by Bienta Enamine Biology Services of Bienta/Enamine Ltd.

[8] = ADME: microsomal stability; format: in vitro ADME
Experimental: as §1

[9] = tested on: Caco-2; assay: ADME: Caco-2 assay; format: in vitro ADME
Experimental: as §1

Question: For `Cc1nn(-c2ccc3nnc(C)n3n2)c(C)c1CCC(=O)N1CCC(Cc2ccccc2)CC1` [Example C25-140, 1-(4-Benzylpiperidin-1-yl)-3-(3,5-dimethyl-1-(3-methyl-[1,2,4]-triazolo-[4,3-b]-pyridazin-6-yl)-1H-pyrazol-4-yl)-propan-1-one], which “Ubiquitin Profiler cascade activity” value [1] is on record?
Answer: None of these reactions was inhibited; also recorded: None of the reactions is considerably inhibited

Question: What about the “IKK kinase activity, phosphorylation of IκBα” value ([2]; IL-1β stimulation) of the same compound?
Answer: decreased IKK kinase activity; also recorded: decreased phosphorylation of IκBα

Question: And the “IKK kinase activity, phosphorylation of IκBα” value ([2]; TNFα stimulation)?
Answer: also affects

Question: What about the “mRNA levels of TCR target genes IL-2 and TNFα” value [3] of the same compound?
Answer: reduced; also recorded: dose-dependently decreased

Question: What about the “activity in cell-based ALPHASurefire (NF-κB activation, p-IκBα)” value [4] of the same compound?
Answer: improved inhibitory activity; also recorded: more active

Question: And the cell cycle progression [5]?
Answer: no effects on cell cycle phases; also recorded: not impaired

Question: What about the “viability of MYD88 wildtype ABC DLBCL” value [6] of the same compound?
Answer: only slightly affected; also recorded: not affected

Question: And the plasma protein binding [7]?
Answer: decent good plasma protein binding capacity

Question: What about the microsomal stability [8] of the same compound?
Answer: stable

Question: And the Caco-2 permeability [9]?
Answer: good penetration of the Caco-2 layer
